{"source": "patent US20230346827A1", "about": "(priority 2020, published 2023)", "key": {"[1]": {"tested_on": "rats with TGFβ1-induced trabecular meshwork fibrosis", "assay": "Rodent model of anterior segment fibrosis / ocular hypertension (IC TGFβ1), s.c. LMW-DS 15 mg/kg daily", "assay_type": "in vivo, rat", "settings": "day 28", "protocol": "Before induction of raised IOP, rats were randomly assigned into two groups (for saline vehicle and LMW-DS treatment). Induction of raised IOP was induced as previously described (Hill LJ, et al. Decorin reduces intraocular pressure and retinal ganglion cell loss in rodents through fibrolysis of the scarred trabecular meshwork. Investigative ophthalmology & visual science. 2015; 56(6): 3743-57). At 0 d, a 15° disposable blade was used to make a self-sealing tunnel through the cornea and this access point was employed for all subsequent twice weekly 3.5 µl IC injections of 5 ng/ml TGFβ1 (Peprotech, London, UK), carried out using sterile glass micropipettes (Harvard Apparatus, Kent, UK) over the 28 d experiment. IOP was also measured twice-weekly (immediately prior to the IC injection) throughout the 28 d experiment. […] At 14 d, rats received either subcutaneous injections of 15 mg/kg LMW-DS (Tikomed AB) or an equivalent saline volume, which continued daily for 14 d. OCT measurements of the RFNL were taken at 28 d as a surrogate for RGC density and ocular tissues from both groups were processed for immunohistochemistry to assess levels of TM fibrosis and RGC survival.\nAdult 10 week old) male Sprague Dawley rats (Charles River, Kent, UK) were housed with free access to food and water under a 12 h dark/light cycle. Surgery was performed at the Biomedical Services Unit at the University of Birmingham (UK) in accordance with the Home Office guidelines set out in the 1986 Animal Act (UK) and the ARVO Statement for the Use of Animals in Ophthalmic and Vision Research. Intraocular injections, optical coherence tomography and intraocular pressure measurements were all taken whilst rats were under inhaled anesthesia using between 2% - 5% isofluorane / 98% - 95% O2 (National Vet Supplies, UK). The welfare of all rats was monitored closely at all times.\nIOP measurements were obtained using an iCare Tonolab (ICare, Helsinki, Finland) calibrated for rats. IOP was recorded twice weekly between 9 am and 11 am throughout the 28 d experiment to avoid confounding circadian variabilities in IOP. Immediately after induction of anesthesia, six rebound measurements were taken with the tonometer from the central cornea and averaged to give a single reading (mmHg). Each graphical data point represents the mean ± SEM of three readings (6 rebounds) taken from each rat sequentially to ensure accurate measurements.\nRetinal nerve fiber layer (RNFL) measurements were taken at 28 d using a Spectralis HRA3 confocal scanning laser ophthalmoscope (Heidelberg Engineering, Heidelberg, Germany). Images were obtained from rats whilst under inhalational anesthesia (as described in the ‘Animals and Surgery’ section above). OCT images were taken of the retina around the optic nerve head and in-built software was used to segment images and quantify the RNFL thickness.\nRats were euthanized by an intraperitoneal injection of sodium pentobarbital (National Veterinary Supplies) on 28 d and intracardially perfused with 4% paraformaldehyde (PFA; TAAB, Aldermaston, UK) in PBS whilst under terminal anesthesia. Eyes were removed and immersion fixed in 4% PFA in PBS for 2 hours at room temperature and then cryoprotected using increasing concentrations of (10%, 20% and 30% sucrose) for 24 hours each at 4° C. […]"}, "[2]": {"tested_on": "PBMC and HUVEC + TCR ligands", "assay": "BioMAP SAg system", "assay_type": "cell-based, human", "settings": "annotated relative to vehicle controls", "excerpt": "Cell types and stimuli used in each system are as follows: 3C system [HUVEC + (IL-1β, TNFα and IFNy)], 4H system [HUVEC + (IL-4 and histamine)], LPS system [PBMC and HUVEC + LPS (TLR4 ligand)], SAg system [PBMC and HUVEC + TCR ligands], BT system [CD19+ B cells and PBMC + (α-IgM and TCR ligands)], BF4T system [bronchial epithelial cells and HDFn + (TNFα and IL-4)], BE3C system [bronchial epithelial cells + (IL-1β, TNFα and IFNy)], CASM3C system [coronary artery smooth muscle cells + (IL-1 β, TNFα and IFNy)], HDF3CGF system [HDFn + (IL-1β, TNFα, IFNy, EGF, bFGF and PDGF-BB)], KF3CT system [keratinocytes and HDFn + (IL-1β, TNFα, IFNy and TGFβ)], MyoF system [differentiated lung myofibroblasts + (TNFα and TGFβ)] and Mphg system [HUVEC and M1 macrophages + Zymosan (TLR2 ligand)].\nSystems are derived from either single cell types or co-culture systems. Adherent cell types are cultured in 96 or 384-well plates until confluence, followed by the addition of PBMC (SAg and LPS systems). […] Soluble factors from supernatants are quantified using either HTRF® detection, bead-based multiplex immunoassay or capture ELISA. Overt adverse effects of test agents on cell proliferation and viability (cytotoxicity) are detected by sulforhodamine B (SRB) staining, for adherent cells, and alamarBlue® reduction for cells in suspension. […]"}}}
{"substance": "sodium salt of dextran sulfate [LMW-DS]", "values": [{"measurement": "fibronectin in the TM (immunoreactive)", "setting": "[1]", "value": "40.2 ± 4.0", "unit": "%"}, {"measurement": "laminin in the TM (immunoreactive)", "setting": "[1]", "value": "25.6 ± 3.5", "unit": "%"}, {"measurement": "retinal nerve fibre layer (RNFL) thickness (OCT)", "setting": "[1]", "value": "59.9 ± 1.2", "unit": "µm"}, {"measurement": "surviving retinal ganglion cells (RGC)", "setting": "[1]", "value": "12.6 ± 0.4", "unit": "RGC/mm"}, {"measurement": "IOP", "setting": "[1]; IC TGFβ1 with SC LMW-DS from day 14", "value": "11.4 ± 0.2", "unit": "mmHg"}, {"measurement": "Increased biomarker activity", "setting": "[2]", "value": "IL-8"}]}
